From PubChem BioAssay AID602217 (Sanford-Burnham Center for Chemical Genomics, 2012)
Activity calls are given as the source filed them.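 How the source made its calls: active means IC50 at or below a set limit; inactive means the rest.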

System: HL-1 cardiomyocytes, 2-deoxyglucose injury, ATPLite luminescence, 2 h
Test: protection of HL-1 cardiomyocytes from 2-deoxyglucose injury, dose response, cell-based, ATPLite luminescence (AID 602217);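 further: cells kept in glucose-free DMEM during the 2-deoxyglucose injury; potency of protection where actives preserve ATP signal against 2-deoxyglucose stress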

SMILES	IC50
CC(=O)Nc1cc(-c2ccc(C(=O)NC3CC3)cc2)cn2c(-c3cccc(C(C)=O)c3)cnc12	12.7 µM
COc1cc(-c2cc(NC(C)=O)c3ncc(-c4ccc(C(C)=O)cc4)n3c2)cc(OC)c1OC	> 79 µM (inactive)
Cc1nn(-c2ccccc2)c(N2CCCC2)c1/C=N/NC(=O)c1cc(-c2ccccn2)nc2ccccc12	19.5 µM
COc1cc(-c2cc(C(=O)OCC(=O)NC3CC3)c3ccccc3n2)cc(OC)c1OC	47.4 µM (inactive)
CCOc1ccccc1NC(=O)c1oc2ccccc2c1NC(=O)C1CCCO1 (stereo not drawn)	> 79 µM (inactive)
COc1ccc(COc2cc(-c3cccc(OC)c3)nc3ccc(NC(=O)c4cccnc4)cc23)cc1	5.96 µM
COc1ccc(C(=O)Nc2cccc(NC(=O)c3ccc(OC)c(OC)c3)n2)cc1OC	11.2 µM
CNC(=O)c1ccc(-c2sc3nc(N4CCOCC4)c4c(c3c2N)CC(C)(C)OC4)o1	46.1 µM (inactive)
COc1cc(C(=O)N/N=C/c2ccc(OC(=O)c3ccccc3)c(OC)c2)ccc1O	37.6 µM (inactive)
O=C(CNC(=O)c1nc[nH]c1C(=O)NCC(=O)OCc1ccccc1)OCc1ccccc1	> 79 µM (inactive)
COc1ccc(-n2c(/C=C/c3ccc(O)c(OC)c3)nc3ccccc3c2=O)cc1	21.3 µM (inactive)
CCOC(=O)c1c2c3c(cccc3n(C)c1=O)C(=O)c1ccccc1-2	> 79 µM (inactive)
COc1ccc(-c2cc(C(=O)N(C)Cc3ccc(OC)c(OC)c3OC)c3ccccc3n2)cc1OC	32.1 µM (inactive)
O=C(c1ccc(-c2nc3ccccc3s2)o1)N1CCN(c2ccccc2O)CC1	> 79 µM (inactive)
COc1ccc(C(=O)Nc2cccc(/C(C)=N/NC(=O)c3ccc([N+](=O)[O-])c(C)c3)c2)cc1OC	5.18 µM
COc1ccc(-c2nn(-c3ccccc3)cc2C(=O)Nc2nccs2)cc1	53.5 µM (inactive)
COc1ccc(-c2cc(NC(C)=O)c3ncc(-c4cccc(C(C)=O)c4)n3c2)cc1OC	> 79 µM (inactive)
Cc1ccc(C)c(NC(=O)C(Sc2nc3ccccc3c(=O)n2CC(C)C)c2ccccc2)c1 (stereo not drawn)	1.14 µM
Cc1ccc(C=NNc2nc3c([nH]2)c(=O)n(C)c(=O)n3C)cc1	> 79 µM (inactive)
NC(=O)c1nsc(C(=O)N(c2ccccc2)C(C(=O)NCc2ccc(F)cc2)c2ccc(O)cc2)c1N (stereo not drawn)	19.8 µM
COc1cc(OC)cc(C(=O)Nc2ccc(C(=O)Nc3ccccc3OC)cc2)c1	> 79 µM (inactive)

SMILES	IC50
Cn1c(=O)c2[nH]c(NN=Cc3cccc(Br)c3)nc2n(C)c1=O	17.9 µM
CCOC(=O)c1c(C)[nH]c(C)c1C(=O)COc1ncnc2cc([N+](=O)[O-])ccc12	> 79 µM (inactive)
COc1ccc2c(c1OC)C(=O)N1c3ccccc3C(=O)N(c3ccccc3)C21 (stereo not drawn)	11 µM
COc1cc(/C=C/C(=O)Nc2ccc3nc4n(c(=O)c3c2)CCCC4)cc(OC)c1OC	51.5 µM (inactive)
COc1ccc(-c2cnc3c(NC=O)cc(-c4cccc(NS(C)(=O)=O)c4)cn23)cc1OC	33.5 µM (inactive)
CCOc1cc(/C=C/c2ccc3cccc([N+](=O)[O-])c3n2)ccc1OCC(=O)N(C)C	40.3 µM (inactive)
Cc1ccc(-c2csc(N3CCC[C@@H]3C(=O)NCCn3c(-c4ccncc4)nc4ccccc43)n2)cc1	> 79 µM (inactive)
NC(=O)c1nsc(C(=O)N(c2ccccc2)C(C(=O)NC2CCCC2)c2ccc3ncccc3c2)c1N (stereo not drawn)	13.2 µM
COc1cc(C(=O)NCC(=O)N/N=C/c2ccc(-c3cccc([N+](=O)[O-])c3)o2)cc(OC)c1OC	> 79 µM (inactive)
COc1cccc(Nc2nc3ccccc3n3cnnc23)c1	> 79 µM (inactive)
O=C(N/N=C/c1ccccn1)c1cc(-c2cccc3ccccc23)n[nH]1	2.9 µM
COc1cccc(-c2cnc3c(NC(C)=O)cc(-c4cccc(NS(C)(=O)=O)c4)cn23)c1	> 79 µM (inactive)
CCCn1nc(C(=O)Nc2nc(-c3ccccn3)cs2)c2ccccc2c1=O	> 79 µM (inactive)
O=C(c1cc(=O)[nH]c2ccccc12)N1CCN(S(=O)(=O)c2ccc(Cl)cc2)CC1	58.3 µM (inactive)
NC(=O)c1cc2ccccc2o/c1=N\NC(=O)c1ccc(F)cc1	> 79 µM (inactive)
CCOc1ccc(C(C(=O)NC2CCCC2)N(C(=O)c2snc(C(N)=O)c2N)c2cccc(O)c2)cc1 (stereo not drawn)	13.1 µM
Cc1ccc(-n2cc(-c3ccccc3)c3c(N4CCOCC4)ncnc32)cc1	7.85 µM
COc1cc(-c2cc(C(=O)NCc3ccco3)c3ccccc3n2)cc(OC)c1OC	31.6 µM (inactive)
N#C/C(=C\Nc1ccc2c(c1)OCCO2)c1nc2ccccc2[nH]1	> 79 µM (inactive)
COc1cc(-c2cc3nc(NCCOc4ccccc4)ccn3n2)cc(OC)c1OC	> 79 µM (inactive)
COc1cc(C(=O)N/N=C/c2ccc(OC(=O)c3cccc(C)c3)c(OC)c2)ccc1O	> 79 µM (inactive)

SMILES	IC50
CC(=O)Nc1cc(-c2cccc(NS(C)(=O)=O)c2)cn2c(-c3cccc(C(C)=O)c3)cnc12	36.4 µM (inactive)
CCOc1cc(/C=C(\C#N)C(=O)Nc2ccc(S(N)(=O)=O)cc2)ccc1OCCN1CCOCC1	> 79 µM (inactive)
O=CNc1cc(-c2ccc(C(=O)NC3CC3)cc2)cn2c(-c3ccccc3)cnc12	40.9 µM (inactive)
CC(=O)Nc1cccc(-c2cc(NC=O)c3ncc(-c4ccc(C(C)=O)cc4)n3c2)c1	23.1 µM (inactive)
COc1cc(-c2cnc3c(NC=O)cc(-c4cccnc4)cn23)cc(OC)c1OC	7.57 µM
COc1ccccc1OP(=O)(Nc1cccnc1)Oc1ccccc1OC	21.2 µM (inactive)
CC1(c2ccccc2)NC(=O)N(CC(=O)Nc2cccc(/C=C/c3ccccn3)c2)C1=O (stereo not drawn)	> 79 µM (inactive)
CC(=O)Nc1ccc(C(=O)N/N=C/c2ccccc2OC(=O)c2ccc(Cl)cc2)cc1	> 79 µM (inactive)
CCn1c(O)c(/C=N/N=C/c2ccccc2)c2ccc(C3=NNC(=O)CC3)cc21	18.1 µM
COc1ccc(-c2cc(-c3nnc(COC(=O)C4CC4)o3)c3ccccc3n2)cc1OC	62.9 µM (inactive)
COc1cc(-c2cc(NC=O)c3ncc(-c4ccc(C(C)=O)cc4)n3c2)cc(OC)c1OC	> 79 µM (inactive)
CC(=O)c1cccc(Nc2nc3ccccc3n3cnnc23)c1	> 79 µM (inactive)
COc1cc(/C=N/NC(=O)c2ccccc2)ccc1OS(=O)(=O)c1ccccc1	> 79 µM (inactive)
COc1ccc(/C=N/NC(=O)c2ccc(COc3cccc4cccnc34)cc2)cc1OC	> 79 µM (inactive)
COc1cc(CN2C[C@@H](CO)O[C@@H](n3cnc4c(Nc5ccccc5)ncnc43)C2)cc(OC)c1OC	> 79 µM (inactive)
COc1cc(NC(=O)c2ccco2)c(OC)cc1NC(=O)c1cc(OC)c(OC)c(OC)c1	18.1 µM
COc1ccc(-c2ccc3c(c2)S(=O)(=O)c2cccc(C(=O)NC[C@@H]4CCCO4)c2C3=O)cc1OC	> 79 µM (inactive)
C[C@H](NC(=O)c1nc[nH]c1C(=O)NCC(=O)OCc1ccccc1)c1ccccc1	> 79 µM (inactive)
COc1ccc(OC)c(/C=N/NC(=O)c2cc3c(OC)c(OC)ccc3[nH]2)c1	> 79 µM (inactive)
CC(C)c1ccccc1NC(=O)COC(=O)c1c2c(nc3ccccc13)CCN(Cc1ccccc1)C2	> 79 µM (inactive)
Cc1nc(N2CCN(c3ccccn3)CC2)c2c(C)c(C(=O)Nc3ccc(F)cc3)sc2n1	> 79 µM (inactive)
